Results on 86 compounds are retold here after ChEMBL document CHEMBL1157539, “Thousands of chemical starting points for antimalarial lead identification” (Nature, 2010).

Molecules are shown by their SMILES.

For this test, the system named is Plasmodium falciparum. Description: GSK_TCMDC: Inhibition of Plasmodium falciparum 3D7 in whole erythrocytes, using parasite LDH activity as an index of growth. In kind it is functional, organism-based. The following applies: Plasmodium falciparum, 3D7.
`O=C(Nc1ccc(N2CCN(C(=O)/C=C/c3ccccc3)CC2)c(Cl)c1)c1ccc([N+](=O)[O-])o1` registered an XC50 of 859 nM.

`CC(C)c1cc2c(ccc3nc(N)nc(N)c32)[nH]1`: the XC50 came out at 39 nM.

Regarding `COc1ccc(Oc2cnc(N)nc2N)c(C(C)C)c1`, the XC50 turned out to be 740 nM.

Turning to `Cc1cc(NCCC(=O)NCCOc2ccccc2)nc(NCc2ccccc2C)n1`, the XC50 worked out at 867 nM.

`CN1CCN(CC(=O)Nc2cccc(-c3ccc(-c4nc5cc(F)ccc5[nH]4)cc3)c2)CC1` gave an XC50 of 703 nM.

`CNCCNCc1cccc(-c2cccc(-c3nc4cc(C(F)(F)F)ccc4[nH]3)c2)c1` returned an XC50 of 203 nM.

On to `O=C(Nc1ccc(Cn2nc(Cl)c(N3CCCNCC3)cc2=O)cc1)c1ccc(-c2ccccc2)cc1`, for which the XC50 was 713 nM.

Take `COc1ccc(C=NNc2nc(O)cc(-c3ccccc3)n2)cc1OC`: the XC50 was found to be 595 nM.

`CN(C)CCOc1cc(NC(=O)Nc2cccc3c(-c4ccncc4)cccc23)ccc1I` displayed an XC50 of 734 nM.

`COc1cc(C)nc2ccc(NC(=O)c3ccc(C(=O)Nc4ccc5nc(C)cc(OC)c5c4)cc3)cc12` registered an XC50 of 63.3 nM.

In turn, `CC(C)CNC(=O)c1cncc(-c2ccc(CNCCCc3ccccc3)cc2)c1` registered an XC50 of 770 nM.

In the case of `CCC1=C[C@@H]2CN(C1)Cc1c([nH]c3ccccc13)[C@@](C(=O)OC)(c1cc3c(cc1OC)N(C)[C@H]1[C@@](O)(C(=O)OC)[C@H](O)[C@]4(CC)C=CCN5CC[C@]31[C@@H]54)C2`, the XC50 came out at 866 nM.

In turn, `CC(CN1CCN(C)CC1)C(=O)Nc1ccc(-c2cccc(-c3nc4ccccc4[nH]3)c2)cc1` (stereo unspecified) displayed an XC50 of 566 nM.

Consider `COc1cc(NC2CCCC(NCc3cn(S(=O)(=O)c4ccccc4)c4ccccc34)C2)nc2ccccc12` (stereo unspecified), for which the XC50 was 248 nM.

Take `CCc1ccc(NC(=O)c2ccc(CN3CCCN(Cc4cccc(O)c4)CC3)cc2)cc1`: the XC50 was 673 nM.

In turn, `CCc1sc(-c2cc(Cl)ccc2OC)nc1C(=O)NCCN1CCCCC1` displayed an XC50 of 938 nM.

Compound `COc1ccc(S(=O)(=O)Nc2cc(Br)cc3c2OCCC3)cc1N1CCN(C(=O)C(Cl)(Cl)Cl)CC1` registered an XC50 of 871 nM.

In the case of `CCNc1cc(C(=O)N[C@@H](Cc2ccccc2)[C@H](O)CNC(C)(C)Cc2cccc(Cl)c2)cc(N2CCCCS2(=O)=O)c1`, the XC50 is 887 nM.

Compound `Cc1nc(-c2ccc(-c3ccc(NC(=O)c4coc5ccc(N6CC(C)NC(C)C6)cc45)cc3)c(C)c2)no1` (stereo unspecified) registered an XC50 of 925 nM.

`COc1cccc2c(NN=Cc3ccccc3Cl)cc(C)nc12` showed an XC50 of 211 nM.

`CCc1ccc(CN2CCC(CNC(=O)c3cc(-c4ccccc4F)cs3)C2)cc1` (stereo unspecified) registered an XC50 of 899 nM.

As for `O=C(Nc1ccc(-c2ccccc2)cc1)Nc1cccc(Cn2ncc(N3CCNCC3)c(Cl)c2=O)c1`, the XC50 stood at 456 nM.

`N#Cc1ccc(N2CCN(C(=O)c3cccc(-c4noc(C(F)(F)F)n4)c3)CC2)nc1` came in with an XC50 of 220 nM.

Take `O=C(/C=C/c1ccc(C(F)(F)F)cc1)N1CCc2cc3nccc(N4CCN5CCC[C@H]5C4)c3cc21`: the XC50 is 1510 nM.

As to `Cc1cc(CN2CC[C@H](NC(=O)c3ccc(Cl)c(Cl)c3)C2)ccc1OC1CCN(C)C1` (stereo partly specified), the XC50 was 947 nM.

Compound `Cc1ccc(NC(=O)c2cccc(C#N)c2)cc1-c1ccc(C(=O)Nc2ccncc2)cc1` returned an XC50 of 688 nM.

On to `CN(c1cc(NC(=O)c2cccs2)ccn1)C1CCN(Cc2cccc(F)c2)CC1`, for which the XC50 worked out at 676 nM.

Compound `O=C(c1cccc(Cl)c1)N1CCN(c2ccc([N+](=O)[O-])c(NC3CC3)c2)CC1` yielded an XC50 of 867 nM.

`O=C(/C=C/c1ccc(Cl)c(Cl)c1)NCC1CCCC(CN2CCC(c3c[nH]c4ccccc34)CC2)C1` (stereo unspecified): the XC50 is 726 nM.

The compound `COc1ccc(NC(=O)[C@H](CC(C)C)Nc2ccnc(NCCc3ccc(F)cc3)n2)cc1` yielded an XC50 of 1600 nM.

`CCNc1cc(C(=O)N[C@@H](Cc2ccc(F)c(F)c2)[C@H](O)CNC2CCCCC2)cc(N2CCCCS2(=O)=O)c1`: the XC50 worked out at 117 nM.

Consider `COc1ccc2nccc([C@@H](O)CN3CCC(NCc4nc5c(cc4F)SCC(=O)N5)C(F)C3)c2c1` (stereo partly specified), for which the XC50 was 725 nM.

For the compound `Cc1cccc2nc(-c3cccc(-c4ccc(NC(=O)C5CCCO5)cc4)c3)[nH]c12` (stereo unspecified), the XC50 came to 901 nM.

In turn, `O=C(N[C@@H](Cc1ccccc1)C(=O)NCc1cccc2ccccc12)c1ccc(O)c(-c2ccc(Cl)c(Cl)c2)c1` registered an XC50 of 236 nM.

Compound `CCc1cc(N2CCN(c3ccccc3F)CC2)nc(SCc2ccc(C(=O)NC3CC3)o2)n1` yielded an XC50 of 892 nM.

Regarding `COc1ccc2c(NN=Cc3ccncc3)ccnc2c1`, the XC50 was 956 nM.

In turn, `COc1ccc2[nH]ccc(=NN=CC=Cc3ccccc3)c2c1` had an XC50 of 743 nM.

As to `Cc1nc2cc(/C=C/C(=O)NC3CCC(CCN4CCc5ccc(C#N)cc5CC4)CC3)ccc2[nH]1` (stereo unspecified), the XC50 was 1140 nM.

As to `O=C(Nc1cccc(-c2nn3ccccc3c2-c2ccnc(Nc3cccc(-c4cnco4)c3)n2)c1)C1CCCCC1`, the XC50 is 261 nM.

For `CCCN(CCCCCCN(CCC)CCc1ccc(O)c(O)c1)CCc1ccc(O)cc1`, the XC50 was 1010 nM.

`COc1ccnc(NCCCNCc2cn(S(=O)(=O)c3ccccc3)c3ccccc23)c1` came in with an XC50 of 790 nM.

`Cc1cc(N(C)C)nc(Nc2ccc(NC(=O)c3ccccc3F)cc2)n1` returned an XC50 of 1160 nM.

`COc1ccc(-c2nc(NC(=O)CSc3ccc([N+](=O)[O-])cc3)sc2C)cc1` yielded an XC50 of 136 nM.

In turn, `NC1CCCN(Cc2cccc(-c3cccc(-c4nc5ccccc5[nH]4)c3)c2)C1` (stereo unspecified) registered an XC50 of 637 nM.

In turn, `Cc1nnc2c(NC(=O)NC(C)C)cc3cc(-c4ccc(CN5CCCCC5)cc4)ccc3n12` came in with an XC50 of 1180 nM.

Consider `Cc1ccc(Cn2nc(Cl)c(N3CCNCC3)cc2=O)cc1NC(=O)Nc1ccc(-c2ccccc2)cc1`, for which the XC50 was found to be 675 nM.

`CCOP(=O)(OCC)c1ccc(OC)c(-c2ccc[nH]2)c1` registered an XC50 of 1190 nM.

The compound `COc1ccc(CNC2CCN(C)CC2)cc1-c1ccc(S(=O)(=O)NC2CCC2)s1` displayed an XC50 of 733 nM.

On to `Cc1cc(N)c2cc(NC(=O)c3ccc4ccccc4c3)ccc2n1`, for which the XC50 came out at 254 nM.

Regarding `Cc1cc(CN2CC[C@H](NC(=O)c3ccc(Cl)c(Cl)c3)C2)ccc1OCCCN(C)C`, the XC50 was 842 nM.

`CCCCCCCc1c(C)[nH]c2ccc(F)cc2c1=O` returned an XC50 of 289 nM.

In turn, `Cn1c2ccccc2c2c3ccccc3c(CNC(CO)(CO)CO)cc21` had an XC50 of 518 nM.

Regarding `O=C(Nc1cccnc1)c1cn(-c2ccccc2)nc1-c1cccs1`, the XC50 was determined as 869 nM.

`CC(C)CN1CCCN(Cc2cccc(NC(=O)c3ccc(Cl)c(Cl)c3)c2)CC1`: the XC50 was 893 nM.

With `COc1ccc2nccc([C@@H](O)CN3CCC(NC(=O)c4cc5ccccc5[nH]4)CC3)c2c1`, the XC50 turned out to be 969 nM.

In turn, `COc1cccc(CNC(=O)c2cccc(-c3cccc(CN4CCC(N5CCCC5)CC4)c3)n2)c1` gave an XC50 of 1030 nM.

Compound `Cc1ccc(Nc2nc(C)cc(Nc3cccc(NS(C)(=O)=O)c3)n2)cc1` had an XC50 of 917 nM.

Take `O=C(Nc1ccc(-c2ccccc2)cc1)Nc1ccc2c(c1)CCNCC2`: the XC50 came out at 348 nM.

In turn, `O=C(/C=C/c1ccc(Cl)c(Cl)c1)NCc1ccc(CN2CCC(c3c[nH]c4ccccc34)CC2)cc1` yielded an XC50 of 711 nM.

With `COc1ccc2nccc(N3CCC(SCCNCc4cc5c(cn4)OCCO5)C3)c2n1` (stereo unspecified), the XC50 was 768 nM.

The compound `FC(F)(F)c1ccc2c(C=Cc3ccncc3)c[nH]c2c1` had an XC50 of 707 nM.

The compound `COc1cc(Nc2ccnc3ccc(C(F)(F)F)cc23)ccc1OCCCc1ccccc1` gave an XC50 of 765 nM.

The compound `Cc1cccc2nc(-c3ccc(-c4ccc(CN5CCCC(O)C5)cc4)s3)[nH]c12` (stereo unspecified) yielded an XC50 of 830 nM.

`CN1CC=C(c2c[nH]c3ccc(OC(=O)c4ccccc4)cc23)C1` returned an XC50 of 800 nM.

On to `COc1ccc(Oc2ccccc2CNCC2CCN(CC3CCCCC3)CC2)cc1`, for which the XC50 turned out to be 904 nM.

Regarding `O=S(=O)(Nc1ccc2nccc(N3CCNCC3)c2c1)c1ccc2c(Cl)cccc2c1`, the XC50 worked out at 573 nM.

The compound `O=C(COc1ccccc1)NC1CCN(c2ccnc3cc(Cl)ccc23)C1` (stereo unspecified) yielded an XC50 of 698 nM.

Consider `CN1Cc2ccc(NS(=O)(=O)c3ccc(-c4ccoc4)cc3)cc2C1`, for which the XC50 turned out to be 160 nM.

In turn, `N=C(N)Nc1nc(-c2cccc(NC(=O)NCCc3c[nH]c4ccc(OCc5ccccc5)cc34)c2)cs1` displayed an XC50 of 805 nM.

`CC[C@H](C)CNC(=O)c1cncc(-c2cccc(CN(C)C3CCN(C)CC3)c2)c1` displayed an XC50 of 785 nM.

In turn, `CCCn1c(O)nnc1SCC(=O)Nc1cc(Cl)ccc1Cl` returned an XC50 of 997 nM.

`CCCCCCCN(CCCCCCC)CCNc1cc(C)nc2ccccc12` showed an XC50 of 339 nM.

As to `CCOC(=O)COc1cccc(CNc2ccc3nc(N)nc(N)c3c2)c1`, the XC50 stood at 408 nM.

`Cc1ccc2[nH]c3c(c2c1)CC(C(=O)NCCC(C)C)NC31CCN(Cc2ccccc2)CC1` (stereo unspecified) had an XC50 of 932 nM.

As to `Cc1cc(-c2cccc3c(NC(=O)N4CCc5cc6nccc(N7CCN8CCC[C@H]8C7)c6cc54)cccc23)cc(C)n1`, the XC50 was 485 nM.

In turn, `CC(Oc1ccc(Cl)cc1)C(=O)N(C)C1CCN(CCCCCNC(=O)/C=C/c2ccc(Cl)c(Cl)c2)CC1` (stereo unspecified) came in with an XC50 of 959 nM.

In the case of `Fc1cc(Cl)ccc1Nc1ccnc2cc(-c3ccc(CN4CCSCC4)o3)ccc12`, the XC50 was 782 nM.

`CCc1nnc2sc(-c3cccc(NC(=O)c4ccc(C)c([N+](=O)[O-])c4)c3)nn12` came in with an XC50 of 1410 nM.

Turning to `Cc1nccn1Cc1cc(C(C)(C)C)c(O)c(C(C)(C)C)c1`, the XC50 was found to be 788 nM.

Turning to `NC1=NC(Cc2ccccc2)(c2ccncc2)C(=O)N1CCCc1ccccc1` (stereo unspecified), the XC50 was found to be 936 nM.

`Cc1cc(NC(=O)c2ccsc2)ccc1OC1CCN(Cc2ccc(F)cc2)CC1` displayed an XC50 of 1220 nM.

In turn, `COc1ccc2nccc([C@@H](O)CN3CCC(NCc4cc5c(F)ccc(F)c5[nH]4)CC3)c2c1` came in with an XC50 of 144 nM.

In turn, `COc1ccc2ncc(F)c(CCN3CC[C@H](NCc4cc(C#N)c5c(c4)OCCO5)[C@H](O)C3)c2c1` showed an XC50 of 885 nM.

Compound `Cc1ccnc2nc(C(=O)Nc3cc(C(F)(F)F)ccc3N3CCCCC3)nn12` gave an XC50 of 61.8 nM.

The compound `CC(C)c1ccc(CN2CCC(CNC(=O)c3cc(-c4cccc(C(F)(F)F)c4)cs3)C2)cc1` (stereo unspecified) came in with an XC50 of 914 nM.

Consider `COc1ccccc1CN1CCC(NC(=O)c2ccc(-c3cccc(Cl)c3)s2)CC1`, for which the XC50 came out at 1420 nM.
